The structures appear in SMILES notation. Values after ≈ are worked out from the molar mass of the structure shown. Active and inactive are the calls of the source. The calls are words filed in the database; no cut-off is given here.

Format in all cases: functional
Assay [1] relates to Mycobacterium tuberculosis. The assay is described as follows: Antimicrobial activity against first mutant generation Mycobacterium tuberculosis 1024_18 assessed as fold shift in MIC relative to parent strain.
For assay [2], the system named is Mycobacterium tuberculosis. The assay is described as follows: Antimicrobial activity against second mutant generation Mycobacterium tuberculosis 1024_18 assessed as fold shift in MIC relative to parent strain.
The test system of assay [3] is Mycobacterium tuberculosis. In words: Antimicrobial activity against second mutant generation Mycobacterium tuberculosis 1024_16.5 assessed as fold shift in MIC relative to parent strain.
Assay [4] relates to Mycobacterium tuberculosis. In words: Antimicrobial activity against second mutant generation Mycobacterium tuberculosis 1024_16.6 assessed as fold shift in MIC relative to parent strain.
Assay [5] relates to Mycobacterium tuberculosis. The assay is described as follows: Antimicrobial activity against Mycobacterium tuberculosis H37Rv over-expressing InhA cells assessed as upshift of MIC relative to wild type.
Assay [6] deals with Mycobacterium tuberculosis. In words: Antimicrobial activity against second mutant generation Mycobacterium tuberculosis 1024_8.12 assessed as fold shift in MIC relative to parent strain.
For assay [7], the system named is Mycobacterium tuberculosis. In words: Antimicrobial activity against first mutant generation Mycobacterium tuberculosis 1024_1 assessed as fold shift in MIC relative to parent strain.
Assay [8] relates to Mycobacterium tuberculosis. The assay is described as follows: Antimicrobial activity against clinical isolate Isoniazid-resistant Mycobacterium tuberculosis assessed as growth inhibition after 7 days by turbidometry. As to conditions: 168 h.
Assay [9] has as its system Mycobacterium tuberculosis. In words: Antimicrobial activity against clinical isolate Rifampin-resistant Mycobacterium tuberculosis assessed as growth inhibition after 7 days by turbidometry. As to conditions: 168 h.

With `CCCc1cc(-c2nc(-c3ccncc3)cs2)ccn1`, the Ratio is on record as 8 in [1]; 8 in assay [2]; 16 in assay [3]; 16 in assay [4]; 8 in assay [6]; 16 in assay [7]. In [5], the result was Active.
Consider `NNC(=O)c1ccncc1` [ISONIAZID], for which the Ratio in assay [1], in assay [2], in assay [3], in assay [4], in [6] and in [7] was 1 in each case. For the same compound, the MIC80 was above 16 µg/mL in assay [8] and 0.03 µg/mL (≈ 0.219 µM) in assay [9]. The “fold change (FC)” value in [5] stood at 8.
On to `CCCc1cc(-c2nc(-c3ccnc(OCC)c3)cs2)ccn1`, for which the outcome in assay [5] was Active.
Turning to `CCc1cc(C(N)=S)ccn1` [ETHIONAMIDE], in [5], the “fold change (FC)” value stood at 8.
The same measure, in the same setting: then `Oc1cc(Cl)ccc1Oc1ccc(Cl)cc1Cl` [TRICLOSAN], with 8.
For the compound `CO[C@H]1/C=C/O[C@@]2(C)Oc3c(C)c(O)c4c(O)c(c(/C=N/N5CCN(C)CC5)c(O)c4c3C2=O)NC(=O)/C(C)=C\C=C\[C@H](C)[C@H](O)[C@@H](C)[C@@H](O)[C@@H](C)[C@H](OC(C)=O)[C@@H]1C` [RIFAMPIN], the Ratio in [1] and in assay [7] was 0.5 in each case. For the same compound, the values for the MIC80 in assay [8] and in assay [9] were 0.003 µg/mL (≈ 0.00365 µM) and above 16 µg/mL, respectively.
`CCCc1cc(-c2nc(-c3ccc(C)cc3)cs2)ccn1` [FATOSTATIN]: the Ratio is listed as 16 in assay [1]; 16 in assay [2]; 16 in assay [3]; above 32 in assay [4]; 16 in [6]; 8 in [7]. Further, in assay [5], the result was Active.
In the case of `CCCc1cc(-c2csc(-c3ccnc(CCC)c3)n2)ccn1`, in [5], the result was Active.
With `CCCc1cc(-c2nc(-c3ccc(OCC4CC4)cc3)cs2)ccn1`, the values for the MIC80 in [8] and in assay [9] were 1 µg/mL (≈ 2.85 µM) and 0.13 µg/mL (≈ 0.371 µM), respectively.
Take `COc1c(N2C[C@@H]3CCCN[C@@H]3C2)c(F)cc2c(=O)c(C(=O)O)cn(C3CC3)c12` [MOXIFLOXACIN]: the Ratio in assay [1] is 1; in assay [2], 0.5; in assay [3], 1; in assay [4], 1; in assay [6], 1; in assay [7], 1.
Consider `CCCc1cc(-c2nc(-c3ccc(NS(C)(=O)=O)cc3)cs2)ccn1`, for which the MIC80 is 0.5 µg/mL (≈ 1.34 µM) in assay [8] and 0.13 µg/mL (≈ 0.348 µM) in [9].
Turning to `CCCc1cc(-c2nc(-c3ccc(OCCN4CCOCC4)cc3)cs2)ccn1`, the Ratio was 8 in assay [2], 4 in assay [3], above 8 in assay [4] and 8 in [6]. Moreover, the MIC80 was 1 µg/mL (≈ 2.44 µM) in assay [8] and 0.5 µg/mL (≈ 1.22 µM) in [9].
As to `CC(=O)NC[C@H]1CN(c2ccc(N3CCOCC3)c(F)c2)C(=O)O1` [LINEZOLID], the Ratio in assay [1] and in assay [7] was 1 throughout.
Regarding `COc1nc2ccc(Br)cc2cc1[C@@H](c1ccccc1)[C@@](O)(CCN(C)C)c1cccc2ccccc12` [BEDAQUILINE], the Ratio in assay [1] was 0.5; in assay [2], 0.25; in [3], 0.5; in assay [4] it was 0.5; in [6] it was 0.25; in assay [7], 1.
For `CCCc1cc(-c2nc(-c3cccc(OC)c3)cs2)ccn1`, the MIC80 in assay [8] was determined as 1 µg/mL (≈ 3.22 µM); in [9], 0.5 µg/mL (≈ 1.61 µM).
Turning to `CCCc1cc(-c2nc(-c3ccccn3)cs2)ccn1`, the result in [5] was Active.
